Laboratory results taken from ChEMBL document CHEMBL3991601, “The target landscape of clinical kinase drugs” (Science, 2017).
Counter-ions that a name gives are not always drawn. Active and inactive are the calls of the source.

Assays:
[1] = molecular target: T1, RNA cytidine acetyltransferase (Homo sapiens, UniProt Q9H0A0)
T1 sequence (Q9H0A0 whole entry): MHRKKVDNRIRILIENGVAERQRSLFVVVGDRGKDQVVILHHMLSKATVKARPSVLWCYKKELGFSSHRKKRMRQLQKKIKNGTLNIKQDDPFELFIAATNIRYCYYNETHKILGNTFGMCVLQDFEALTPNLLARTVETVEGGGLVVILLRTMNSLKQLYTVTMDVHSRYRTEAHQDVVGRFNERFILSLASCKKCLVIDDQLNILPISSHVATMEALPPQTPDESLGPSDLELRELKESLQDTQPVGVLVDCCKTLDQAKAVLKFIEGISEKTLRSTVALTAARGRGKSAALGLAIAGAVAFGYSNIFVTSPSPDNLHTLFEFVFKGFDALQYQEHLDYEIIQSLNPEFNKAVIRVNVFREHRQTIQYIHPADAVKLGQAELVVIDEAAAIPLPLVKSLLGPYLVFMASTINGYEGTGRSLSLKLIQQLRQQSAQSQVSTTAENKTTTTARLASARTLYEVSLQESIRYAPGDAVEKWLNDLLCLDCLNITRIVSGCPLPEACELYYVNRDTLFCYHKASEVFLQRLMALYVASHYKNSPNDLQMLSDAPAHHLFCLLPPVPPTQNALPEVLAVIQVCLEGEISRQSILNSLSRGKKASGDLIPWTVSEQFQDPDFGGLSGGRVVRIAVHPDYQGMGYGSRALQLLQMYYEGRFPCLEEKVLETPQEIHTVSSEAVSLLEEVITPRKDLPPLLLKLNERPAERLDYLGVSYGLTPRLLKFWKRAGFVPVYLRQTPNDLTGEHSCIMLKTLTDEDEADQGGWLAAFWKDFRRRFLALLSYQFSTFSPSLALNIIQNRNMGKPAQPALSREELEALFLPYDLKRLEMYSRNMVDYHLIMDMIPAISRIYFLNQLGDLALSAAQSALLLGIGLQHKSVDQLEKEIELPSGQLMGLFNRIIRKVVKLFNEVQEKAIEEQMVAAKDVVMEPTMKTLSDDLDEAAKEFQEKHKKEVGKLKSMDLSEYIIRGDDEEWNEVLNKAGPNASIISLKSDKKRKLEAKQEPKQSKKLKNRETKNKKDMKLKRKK

[2] = molecular target: Membrane-associated progesterone receptor component 1 (Homo sapiens, UniProt O00264)
Membrane-associated progesterone receptor component 1, sequence (O00264 whole entry): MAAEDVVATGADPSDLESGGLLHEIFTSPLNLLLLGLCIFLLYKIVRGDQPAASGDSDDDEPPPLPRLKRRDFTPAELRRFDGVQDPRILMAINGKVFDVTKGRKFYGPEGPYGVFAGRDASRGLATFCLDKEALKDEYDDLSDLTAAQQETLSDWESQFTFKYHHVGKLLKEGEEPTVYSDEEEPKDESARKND

[3] = molecular target: T2, Glycogen phosphorylase, liver form (Homo sapiens, UniProt P06737); assay type: subcellular, K-562, COLO 205, SK-N-BE(2) and MV-4-11, Cell lysate; conditions: read-out: Kd apparent
T2 sequence (P06737 whole entry): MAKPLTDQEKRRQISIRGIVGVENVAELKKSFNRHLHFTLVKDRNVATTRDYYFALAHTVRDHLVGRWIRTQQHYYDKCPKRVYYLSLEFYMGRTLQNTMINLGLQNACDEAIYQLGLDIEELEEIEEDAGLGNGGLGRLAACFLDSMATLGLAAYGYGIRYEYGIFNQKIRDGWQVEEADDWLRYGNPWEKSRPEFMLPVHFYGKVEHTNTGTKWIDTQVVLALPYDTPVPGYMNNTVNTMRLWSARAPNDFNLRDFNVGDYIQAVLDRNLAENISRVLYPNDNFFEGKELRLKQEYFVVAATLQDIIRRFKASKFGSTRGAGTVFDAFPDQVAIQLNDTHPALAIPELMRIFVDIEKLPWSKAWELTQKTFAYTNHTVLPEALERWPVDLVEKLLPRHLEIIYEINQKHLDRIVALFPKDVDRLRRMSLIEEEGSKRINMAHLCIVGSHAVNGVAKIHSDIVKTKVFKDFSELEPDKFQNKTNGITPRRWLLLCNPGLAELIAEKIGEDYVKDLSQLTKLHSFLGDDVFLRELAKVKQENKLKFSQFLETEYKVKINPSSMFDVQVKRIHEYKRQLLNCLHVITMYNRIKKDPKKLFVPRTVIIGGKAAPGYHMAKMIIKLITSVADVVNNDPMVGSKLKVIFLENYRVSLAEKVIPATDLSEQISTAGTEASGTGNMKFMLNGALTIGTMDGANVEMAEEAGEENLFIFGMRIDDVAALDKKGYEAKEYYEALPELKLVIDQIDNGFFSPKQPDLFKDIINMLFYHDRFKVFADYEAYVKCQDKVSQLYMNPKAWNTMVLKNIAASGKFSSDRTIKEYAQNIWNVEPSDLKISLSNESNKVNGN

Obg-like ATPase 1 = Obg-like ATPase 1 (Homo sapiens, UniProt Q9NTK5)
Obg-like ATPase 1, sequence (Q9NTK5 whole entry, looked up): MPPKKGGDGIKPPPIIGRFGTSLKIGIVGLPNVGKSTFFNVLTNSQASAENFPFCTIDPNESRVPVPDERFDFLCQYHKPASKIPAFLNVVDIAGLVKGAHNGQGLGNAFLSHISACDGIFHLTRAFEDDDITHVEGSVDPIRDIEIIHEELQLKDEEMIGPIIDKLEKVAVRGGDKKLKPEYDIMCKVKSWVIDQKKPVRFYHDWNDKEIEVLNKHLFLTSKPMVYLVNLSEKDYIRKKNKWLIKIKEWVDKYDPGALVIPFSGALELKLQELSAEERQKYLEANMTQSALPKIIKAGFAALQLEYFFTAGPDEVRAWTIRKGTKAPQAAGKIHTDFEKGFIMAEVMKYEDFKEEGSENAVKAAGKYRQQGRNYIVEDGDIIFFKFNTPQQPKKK

[4] = molecular target: Serine/threonine-protein kinase B-raf (Homo sapiens, UniProt P15056)
Serine/threonine-protein kinase B-raf, sequence (P15056 whole entry): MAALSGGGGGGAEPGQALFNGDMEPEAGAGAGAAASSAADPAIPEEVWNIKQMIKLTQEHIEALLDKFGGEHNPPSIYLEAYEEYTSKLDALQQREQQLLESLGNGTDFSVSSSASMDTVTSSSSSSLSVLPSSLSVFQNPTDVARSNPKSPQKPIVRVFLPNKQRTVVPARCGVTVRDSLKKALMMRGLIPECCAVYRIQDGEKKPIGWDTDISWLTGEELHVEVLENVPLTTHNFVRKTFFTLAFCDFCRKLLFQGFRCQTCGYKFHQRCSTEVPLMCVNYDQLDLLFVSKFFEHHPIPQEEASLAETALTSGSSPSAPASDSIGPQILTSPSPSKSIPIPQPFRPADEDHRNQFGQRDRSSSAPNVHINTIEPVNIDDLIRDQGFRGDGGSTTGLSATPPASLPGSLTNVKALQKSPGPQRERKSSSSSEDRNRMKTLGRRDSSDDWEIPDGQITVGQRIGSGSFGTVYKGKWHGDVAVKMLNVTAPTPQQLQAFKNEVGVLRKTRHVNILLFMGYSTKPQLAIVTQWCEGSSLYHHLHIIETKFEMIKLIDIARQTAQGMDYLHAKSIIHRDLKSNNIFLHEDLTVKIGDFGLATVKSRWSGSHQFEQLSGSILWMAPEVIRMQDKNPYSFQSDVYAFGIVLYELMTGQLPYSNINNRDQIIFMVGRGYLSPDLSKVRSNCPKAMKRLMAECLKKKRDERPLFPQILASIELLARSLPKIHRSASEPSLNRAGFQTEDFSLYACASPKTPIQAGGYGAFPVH

[5] = molecular target: T3, STE20-related kinase adapter protein alpha (Homo sapiens, UniProt Q7RTN6)
T3 sequence (Q7RTN6 whole entry): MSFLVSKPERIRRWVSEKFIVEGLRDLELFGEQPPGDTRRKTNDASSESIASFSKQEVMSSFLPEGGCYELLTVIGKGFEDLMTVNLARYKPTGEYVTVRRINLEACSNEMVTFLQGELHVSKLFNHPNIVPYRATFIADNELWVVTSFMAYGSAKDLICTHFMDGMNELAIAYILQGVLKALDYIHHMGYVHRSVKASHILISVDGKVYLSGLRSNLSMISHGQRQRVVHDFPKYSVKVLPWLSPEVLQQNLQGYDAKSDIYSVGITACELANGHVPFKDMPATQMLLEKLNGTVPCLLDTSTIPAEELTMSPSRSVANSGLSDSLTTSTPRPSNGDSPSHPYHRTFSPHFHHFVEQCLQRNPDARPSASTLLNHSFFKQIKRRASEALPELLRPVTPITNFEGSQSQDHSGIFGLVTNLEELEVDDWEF

[6] = molecular target: Protein kinase C theta type (Homo sapiens, UniProt Q04759)
Protein kinase C theta type, sequence (Q04759 whole entry): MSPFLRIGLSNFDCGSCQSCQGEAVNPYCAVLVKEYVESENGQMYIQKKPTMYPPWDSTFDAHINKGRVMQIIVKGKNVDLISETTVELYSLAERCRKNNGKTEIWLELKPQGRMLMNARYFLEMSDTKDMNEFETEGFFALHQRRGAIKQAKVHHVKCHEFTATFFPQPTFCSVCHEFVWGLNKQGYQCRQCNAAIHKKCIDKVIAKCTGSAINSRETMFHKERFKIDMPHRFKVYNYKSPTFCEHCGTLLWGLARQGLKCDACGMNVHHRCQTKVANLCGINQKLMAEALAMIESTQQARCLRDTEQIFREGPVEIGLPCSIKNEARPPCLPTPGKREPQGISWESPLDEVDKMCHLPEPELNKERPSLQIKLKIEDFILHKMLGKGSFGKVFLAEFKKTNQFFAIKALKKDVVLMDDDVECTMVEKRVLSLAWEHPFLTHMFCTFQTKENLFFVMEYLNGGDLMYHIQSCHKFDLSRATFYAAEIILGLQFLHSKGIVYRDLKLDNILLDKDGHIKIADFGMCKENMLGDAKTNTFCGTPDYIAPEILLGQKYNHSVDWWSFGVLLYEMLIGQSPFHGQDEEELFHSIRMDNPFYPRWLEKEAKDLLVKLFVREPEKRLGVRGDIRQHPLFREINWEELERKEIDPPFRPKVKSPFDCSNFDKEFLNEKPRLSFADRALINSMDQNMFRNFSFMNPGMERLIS
Further: in the data inactive means no Kd found up to 30 µM.

| Structure (SMILES) | Kd [1] | Kd [2] | Kd [3] | Kd (Obg-like ATPase 1) | Kd [4] | Kd [5] | Kd [6] |
| --- | --- | --- | --- | --- | --- | --- | --- |
| CCNC(=O)C#Cc1ccc2c(c1)NC(=O)/C2=C(\Nc1ccc(CN(C)C)cc1)c1ccccc1 | > 30 µM (inactive) | > 30 µM (inactive) | > 30 µM (inactive) | > 30 µM (inactive) | > 30 µM (inactive) | > 30 µM (inactive) | – |
| C=CC(=O)N1CCC[C@H](n2c(=O)n(-c3ccc(Oc4ccccc4)cc3)c3c(N)ncnc32)C1 | > 30 µM (inactive) | > 30 µM (inactive) | > 30 µM (inactive) | > 30 µM (inactive) | > 30 µM (inactive) | > 30 µM (inactive) | > 30 µM (inactive) |
| COc1cc(Nc2ncc3c(n2)-c2ccc(Cl)cc2C(c2c(F)cccc2OC)=NC3)ccc1C(=O)O [ALISERTIB] | > 30 µM (inactive) | > 30 µM (inactive) | > 30 µM (inactive) | > 30 µM (inactive) | > 30 µM (inactive) | > 30 µM (inactive) | – |
| COc1c(OCCCN2CCOCC2)ccc2c1N=C(NC(=O)c1cnc(N)nc1)N1CCN=C21 [COPANLISIB] | > 30 µM (inactive) | – | > 30 µM (inactive) | > 30 µM (inactive) | > 30 µM (inactive) | > 30 µM (inactive) | > 30 µM (inactive) |
| CCS(=O)(=O)N1CCN(c2ccc(Nc3ncc(C(N)=O)c(NC4CC4)n3)cc2)CC1 [Cerdulatinib Hydrochloride] | > 30 µM (inactive) | > 30 µM (inactive) | > 30 µM (inactive) | – | > 30 µM (inactive) | > 30 µM (inactive) | > 30 µM (inactive) |
| Cc1nc2cc(-n3ncc(C(=O)c4cc5ccccc5[nH]4)c3N)ccc2[nH]1 [FGFR INHIBITOR DEBIO 1347] | > 30 µM (inactive) | > 30 µM (inactive) | > 30 µM (inactive) | > 30 µM (inactive) | > 30 µM (inactive) | – | > 30 µM (inactive) |
| O=C(Nc1cc(C(F)(F)F)cc(C(F)(F)F)c1)c1cc(Cl)ccc1O [IMD-0354] | > 30 µM (inactive) | > 30 µM (inactive) | > 30 µM (inactive) | – | > 30 µM (inactive) | > 30 µM (inactive) | > 30 µM (inactive) |
| CNC(=O)c1nn(C)c2c1C(C)(C)Cc1cnc(Nc3ccc(N4CCN(C)CC4)cc3)nc1-2 [MILCICLIB] | > 30 µM (inactive) | > 30 µM (inactive) | > 30 µM (inactive) | – | > 30 µM (inactive) | > 30 µM (inactive) | > 30 µM (inactive) |
| FC(F)(F)c1ccc(/C=C/c2nc(COc3ccc(CCCCn4ccnn4)cc3)co2)cc1 [MUBRITINIB] | > 30 µM (inactive) | > 30 µM (inactive) | > 30 µM (inactive) | – | > 30 µM (inactive) | > 30 µM (inactive) | > 30 µM (inactive) |
| CO[C@H]1C[C@@H]2CC[C@@H](C)[C@@](O)(O2)C(=O)C(=O)N2CCCC[C@H]2C(=O)O[C@H]([C@H](C)C[C@@H]2CC[C@@H](OP(C)(C)=O)[C@H](OC)C2)CC(=O)[C@H](C)/C=C(\C)[C@@H](O)[C@@H](OC)C(=O)[C@H](C)C[C@H](C)/C=C/C=C/C=C/1C [RIDAFOROLIMUS] | > 30 µM (inactive) | > 30 µM (inactive) | > 30 µM (inactive) | – | > 30 µM (inactive) | > 30 µM (inactive) | > 30 µM (inactive) |
| N#CC1(c2ccc(NC(=O)c3cccnc3NCc3ccncc3)cc2)CCCC1 [RIVOCERANIB] | > 30 µM (inactive) | – | > 30 µM (inactive) | > 30 µM (inactive) | > 30 µM (inactive) | > 30 µM (inactive) | > 30 µM (inactive) |
| CN1CCN(CCOc2cc(OC3CCOCC3)c3c(Nc4c(Cl)ccc5c4OCO5)ncnc3c2)CC1 [SARACATINIB] | > 30 µM (inactive) | – | > 30 µM (inactive) | – | > 30 µM (inactive) | > 30 µM (inactive) | > 30 µM (inactive) |
| CO[C@H]1C[C@@H]2CC[C@@H](C)[C@@](O)(O2)C(=O)C(=O)N2CCCC[C@H]2C(=O)O[C@H]([C@H](C)C[C@@H]2CC[C@@H](O)[C@H](OC)C2)CC(=O)[C@H](C)/C=C(\C)[C@@H](O)[C@@H](OC)C(=O)[C@H](C)C[C@H](C)/C=C/C=C/C=C/1C [SIROLIMUS] | > 30 µM (inactive) | – | > 30 µM (inactive) | > 30 µM (inactive) | > 30 µM (inactive) | > 30 µM (inactive) | > 30 µM (inactive) |
| Cn1ncc(Cl)c1-c1cc(C(=O)N[C@H](CN)Cc2ccc(F)c(F)c2)oc1Cl [UPROSERTIB] | > 30 µM (inactive) | > 30 µM (inactive) | > 30 µM (inactive) | > 30 µM (inactive) | > 30 µM (inactive) | > 30 µM (inactive) | – |
| CN1C/C=C/CCOc2cccc(c2)-c2ccnc(n2)Nc2cccc(c2)C1 [ZOTIRACICLIB] | > 30 µM (inactive) | > 30 µM (inactive) | > 30 µM (inactive) | – | > 30 µM (inactive) | > 30 µM (inactive) | > 30 µM (inactive) |

More lines, now with the values ahead:

| Kd [1] | Kd [2] | Kd [3] | Kd (Obg-like ATPase 1) | Kd [4] | Kd [5] | Kd [6] | Structure (SMILES) |
| --- | --- | --- | --- | --- | --- | --- | --- |
| > 30 µM (inactive) | > 30 µM (inactive) | > 30 µM (inactive) | – | > 30 µM (inactive) | > 30 µM (inactive) | > 30 µM (inactive) | Nc1ncnc2c1c(-c1cccc(OCc3ccccc3)c1)cn2[C@H]1C[C@@H](CN2CCC2)C1 [AEW-541] |
| > 30 µM (inactive) | – | > 30 µM (inactive) | > 30 µM (inactive) | > 30 µM (inactive) | > 30 µM (inactive) | > 30 µM (inactive) | COc1ccc(S(=O)(=O)N(C(C)=O)c2ccccc2/C=C/c2cc[n+]([O-])cc2)cc1 [HMN-214] |
| > 30 µM (inactive) | > 30 µM (inactive) | > 30 µM (inactive) | > 30 µM (inactive) | > 30 µM (inactive) | > 30 µM (inactive) | – | CC(=O)NCC(=O)N1[C@@H]2CC[C@H]1c1ccc(Nc3ncc(C(F)(F)F)c(NC4CCC4)n3)cc12 [PF-03814735] |
| > 30 µM (inactive) | – | > 30 µM (inactive) | – | > 30 µM (inactive) | > 30 µM (inactive) | > 30 µM (inactive) | CC(C)c1cc(CNc2nc(Nc3cc(C4CC4)[nH]n3)cc(N3CCN(C)CC3)n2)on1 [XL-228] |
| > 30 µM (inactive) | – | > 30 µM (inactive) | > 30 µM (inactive) | > 30 µM (inactive) | > 30 µM (inactive) | 0.09 µM (active) | C[C@@H](N)c1ccc(C(=O)Nc2ccnc3[nH]ccc23)cc1 [Y-39983] |
